Data as given in patent US6599748B1, “Hardness indicator composition and method of water hardness analysis” (Miura Co., Ltd., priority 1999, dated 2003).
Read-outs that look alike come from different tables or passages of the source.

Experiments:
[1] = Ca chelate stability constant (chelating power with calcium); format: physicochemical
Source text: […]. […] […].

[2] = Source text: Therefore, the desensitizer to be added to the metal indicator is explained. […] However, the desensitizer differs from the metal indicator in that the metal indicator forms complex ions in combination with all hardness-component metal ions, while the desensitizer forms complex ions in combination with part of the hardness-component metal ions. […] Symbol “ ” in results represents usableness as the desensitizer, and “×” represents unusableness as the desensitizer.
Accordingly, Table 1 show the results of judgment determined by taking into account these conditions.

| Molecule | Ca chelate stability constant, logK [1] | Ca chelate stability constant, logK ([1]; chelating power with calcium) | Solubility, g/100 g water [2] |
| --- | --- | --- | --- |
| O=C([O-])CC(O)(CC(=O)O)C(=O)[O-].[K+].[K+] [2K citrate] | <2.0 |  |  |
| O=C([O-])CNCC(=O)[O-].[K+].[K+] [2K iminodiacetate] | 2.59 |  |  |
| O=C([O-])CC(O)(CC(=O)[O-])C(=O)[O-].[Na+].[Na+].[Na+] [2Na citrate, sodium citrate] |  | <2.0 |  |
| O=C([O-])CNCC(=O)[O-].[Na+].[Na+] [2Na iminodiacetate, sodium iminodiacetate] | 2.59 |  | 10 g/100 g water |
| sodium polyacrylate [Na polyacrylate] | <2.0 |  | over 40 g/100 g water |
